Test results published in patent US6673827B1, “Methods of treating fungal infections with inhibitors of NAD synthetase enzyme” (priority 1999, dated 2004).
Read-outs that look alike come from different tables or passages of the source.

Assays:
[1] = target: T1, NAD synthetase (recombinant protein from B. subtilis; purified) (Bacillus subtilis, UniProt P08164); experiment: NAD synthetase enzyme inhibition assay (coupled enzymatic assay, HTS); type: biochemical
T1 construct: made in house

[2] = test system: Candida albicans (ATCC 10231); experiment: Minimum Inhibitory Concentration (MIC) against yeast, broth dilution; type: cell-based; settings: Candida albicans, ATCC10231; 37° C., 20 hours, mean of duplicate; read-out: MIC Candida albicans (ATCC 10231)
[3] = test system: Candida tropicalis (ATCC 28707-amphotericin B-resistant); experiment: as above; type: cell-based; settings: Candida tropicalis, ATCC28707, 37° C., 20 hours, mean of duplicate
[4] = test system: Candida tropicalis (ATCC 750); experiment: as above; type: cell-based; settings: Candida tropicalis, ATCC750; 37° C., 20 hours, mean of duplicate
[5] = In vivo toxicity: intraperitoneal (IP) dosage in mice resulting in 50% lethality (LD50); settings: mouse, in vivo; male CD-1 mice, single IP dose, observed 14 days
[6] = test system: Candida tropicalis ATCC 750; experiment: In vitro study of inhibition of growth and lethality against yeast (MIC/MLC susceptibility test), isolate A; type: cell-based; settings: Candida tropicalis, 2nd pair of lines, isolate assigned by line order
[7] = test system: Candida tropicalis ATCC 28707; experiment: In vitro study of inhibition of growth and lethality against yeast (MIC/MLC susceptibility test), isolate B; type: cell-based; settings: Candida tropicalis, 1st pair of lines, isolate assigned by line order
[8] = test system: Candida albicans KJP-000531594; experiment: In vitro study of inhibition of growth and lethality against yeast (MIC/MLC susceptibility test), isolate C; type: cell-based; settings: Candida albicans, Candida albicans, 1st pair of lines
[9] = test system: Candida albicans LH-000664533; experiment: In vitro study of inhibition of growth and lethality against yeast (MIC/MLC susceptibility test), isolate D; type: cell-based; settings: Candida albicans, Candida albicans, 2nd pair of lines, isolate assigned by line order
[10] = test system: Torulopsis glabrata JHC-BC9951635; experiment: In vitro study of inhibition of growth and lethality against yeast (MIC/MLC susceptibility test), isolate E; type: cell-based; settings: Torulopsis glabrata, 2nd pair of lines, isolate assigned by line order
[11] = test system: Torulopsis glabrata ERH-BC9938274; experiment: In vitro study of inhibition of growth and lethality against yeast (MIC/MLC susceptibility test), isolate F; type: cell-based; settings: Nakaseomyces glabratus, Torulopsis glabrata, 1st pair of lines, isolate assigned by line order
[12] = test system: Cryptococcus neoformans DLB-1027594CNC; experiment: In vitro study of inhibition of growth and lethality against yeast (MIC/MLC susceptibility test), isolate G; type: cell-based; settings: Cryptococcus neoformans, 1st pair of lines, isolate assigned by line order
[13] = test system: Cryptococcus neoformans SLP-BC0012854; experiment: In vitro study of inhibition of growth and lethality against yeast (MIC/MLC susceptibility test), isolate H; type: cell-based; settings: Cryptococcus neoformans, 2nd pair of lines, isolate assigned by line order

T1 sequence (P08164 whole entry): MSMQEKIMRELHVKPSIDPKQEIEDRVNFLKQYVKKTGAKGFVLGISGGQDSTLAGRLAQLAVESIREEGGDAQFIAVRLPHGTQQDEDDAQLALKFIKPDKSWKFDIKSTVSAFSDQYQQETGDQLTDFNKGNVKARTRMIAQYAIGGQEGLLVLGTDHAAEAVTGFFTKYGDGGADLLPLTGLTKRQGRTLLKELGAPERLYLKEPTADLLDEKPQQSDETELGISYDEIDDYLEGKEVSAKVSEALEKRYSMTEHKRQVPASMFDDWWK

Compound COC(=O)c1cc2cc(OCc3ccccc3)ccc2n1CCCCCCCOC(=O)Cc1ccc([N+](C)(C)C)cc1.[I-] [Compound 988] has an IC50 [1] of 10 µM, an IC50 ([1]; IC50 (μg/mL) for Inhibit. of NAD Synthetase, table of structures used in the yeast assay (Example 4)) of 14.3 µM and an MIC [2] of 0.1 mg/L. The MIC [3] was 0.15 mg/L, the MIC [4] was 0.024 mg/L and the LD50 at 14 days [5] was 135 mg/kg. It also gave an MFC ([6]; ATCC750, read-out: Minimum Lethal Conc. (MLC)) of 1 mg/L, an MIC ([6]; ATCC750, 24 h, read at 24 hr, read-out: Minimum Inhibitory Conc. (MIC), 24 hr.) of 1 mg/L and an MIC ([6]; ATCC750, 48 h, read at 48 hr, read-out: Minimum Inhibitory Conc. (MIC), 48 hr.) of 1 mg/L. For the same compound, the MFC ([7]; ATCC28707, read-out: Minimum Lethal Conc. (MLC)) was 1 mg/L, the “Minimum Inhibitory Conc. (MIC), 24 hr.” value ([7]; read at 24 hr) was 1 mg/L and the “Minimum Inhibitory Conc. (MIC), 48 hr.” value ([7]; read at 48 hr) was 1 mg/L. The MIC ([7]; ATCC28707, 24 h, read at 24 hr, read-out: Minimum Inhibitory Conc. (MIC), 24 hr.) was 0.5 mg/L, the MIC ([7]; ATCC28707, 48 h, read at 48 hr, read-out: Minimum Inhibitory Conc. (MIC), 48 hr.) was 0.5 mg/L and the MIC ([8]; KJP000531594, 24 h, read at 24 hr, isolate not given, assigned by line order and MLC of Table 4B, read-out: Minimum Inhibitory Conc. (MIC), 24 hr.) was 1 mg/L. It also gave an MIC ([8]; KJP000531594, 48 h, read at 48 hr, isolate assigned by line order, read-out: Minimum Inhibitory Conc. (MIC), 48 hr.) of 1 mg/L, an MFC ([8]; KJP000531594, isolate assigned by line order, read-out: Minimum Lethal Conc. (MLC)) of 1 mg/L and an MIC ([9]; LH000664533, 24 h, read at 24 hr, read-out: Minimum Inhibitory Conc. (MIC), 24 hr.) of 1 mg/L. It also gave an MIC ([9]; LH000664533, 48 h, read at 48 hr, read-out: Minimum Inhibitory Conc. (MIC), 48 hr.) of 2 mg/L, an MFC ([9]; LH000664533, read-out: Minimum Lethal Conc. (MLC)) of 2 mg/L and an MIC ([10]; Nakaseomyces glabratus, JHCBC9951635, 24 h, read at 24 hr, read-out: Minimum Inhibitory Conc. (MIC), 24 hr.) of 1 mg/L. The MIC ([10]; Nakaseomyces glabratus, JHCBC9951635, 48 h, read at 48 hr, read-out: Minimum Inhibitory Conc. (MIC), 48 hr.) was 2 mg/L, the MFC ([10]; Nakaseomyces glabratus, JHCBC9951635, read-out: Minimum Lethal Conc. (MLC)) was 2 mg/L and the “Minimum Inhibitory Conc. (MIC), 24 hr.” value ([10]; read at 24 hr) was 2 mg/L. It also gave an MIC ([11]; ERHBC9938274, 24 h, read at 24 hr, read-out: Minimum Inhibitory Conc. (MIC), 24 hr.) of 2 mg/L, an MIC ([11]; ERHBC9938274, 48 h, read at 48 hr, read-out: Minimum Inhibitory Conc. (MIC), 48 hr.) of 2 mg/L and an MFC ([11]; ERHBC9938274, read-out: Minimum Lethal Conc. (MLC)) of 2 mg/L. The “Minimum Inhibitory Conc. (MIC), 72 hr.” value ([12]; read at 72 hr) was 2 mg/L, the MIC ([12]; DLB1027594CNC, 48 h, read at 48 hr, read-out: Minimum Inhibitory Conc. (MIC), 48 hr.) was 1 mg/L and the MIC ([12]; DLB1027594CNC, 72 h, read at 72 hr, read-out: Minimum Inhibitory Conc. (MIC), 72 hr.) was 1 mg/L. The MFC ([12]; DLB1027594CNC, read-out: Minimum Lethal Conc. (MLC)) was 4 mg/L, the “Minimum Inhibitory Conc. (MIC), 72 hr.” value ([13]; read at 72 hr) was 2 mg/L and the MIC ([13]; SLPBC0012854, 48 h, read at 48 hr, read-out: Minimum Inhibitory Conc. (MIC), 48 hr.) was 1 mg/L. The MIC ([13]; SLPBC0012854, 72 h, read at 72 hr, read-out: Minimum Inhibitory Conc. (MIC), 72 hr.) was 1 mg/L and the MFC ([13]; SLPBC0012854, read-out: Minimum Lethal Conc. (MLC)) was 4 mg/L.
